In patent US20100273748A1, “ANTIMICROBIAL THERAPY” (priority 2006, published 2010):

Columns and labels:
[1] = test system: CYP24A1; experiment: qPCR of CYP24A1 mRNA in cultured keratinocytes; type: cell-based, human; conditions: 1,25D3 10^−8M, 24 hours
Description: Cell culture and stimuli. Human keratinocytes were grown in serum-free EpiLife® cell culture media (Cascade Biologics; Portland, Oreg.) containing 0.06 mM Ca2+ and 1× EpiLife® defined growth supplement (EDGS) at 37° C. under standard tissue culture conditions. Stock cultures were maintained for up to five passages in this media with the addition of 50 U/mL penicillin and 50 μg/mL streptomycin. HaCaT keratinocytes were cultured in DMEM (Sigma, St. Louis, Mo.) with 10% FCS. Cells at 50-70% confluence were stimulated in fresh medium after preincubation with 1,25(OH)2 vitamin D3 (1,25D3; 0.1-100 nM, 4-24 h; Sigma). Alternatively, NHEK were stimulated in the presence of 1,25D3 (0.1-100 nM). […]
Real-time RT-PCR (qPCR). […] Expression of cathelicidin and GAPDH was analysed by real-time RT-PCR. […] Fold induction relative to the vehicle treated control in in vitro experiments was calculated using the comparative Ct method, where ΔΔCt is ΔCt(stimulant)-ΔCt(vehicle), ΔCt is Ct(gene)-Ct(GAPDH) and Ct is the cycle at which an arbitrary detection threshold is crossed. For quantification of transcript abundance in tissue samples target gene expression was normalized to GAPDH and compared to non-treated or non-injured skin.

[2] = test system: cathelicidin; experiment: Cathelicidin protein immunostaining in NHEK; type: cell-based, human; conditions: butyrate (2 mM) and 1,25D3 (10^−8M), 24 hours
Description: Panel a: NHEKs were stimulated with 1,25D3 (10^−9-10^−7 M) in the presence of the HDAC inhibitor butyrate (BUT; 2 mM) for 24 hours. mRNA abundance was determined by real-time qPCR for cathelicidin and glyceraldehyde-3-phosphate dehydrogenase and normalized to vehicle-treated controls. […] Data shown are means (7SD) of the results from a single stimulation experiment performed in triplicates and are representative of at least three independent experiments (**P<0.01; ***P<0.001; two-way analysis of variance). Panel b: The HDAC inhibitor TSA (200 ng ml^−1) induces cathelicidin in the presence of 1,25D3 (10^−8M). Expression of cathelicidin is dependent on a functional VDR, as pretreatment with the VDR antagonist ZK159222 (10^−7 M) inhibits induction of cathelicidin with BUT (2 mM) in the presence of 1,25D3 (10^−8 M) after 24 hours. Expression of cathelicidin was determined by qPCR as described in Panel a. (*P<0.05; Student's t-test). […] Cells were stained with a polyclonal anti-LL-37 antibody (followed by an FITC-coupled secondary antibody) and nuclei detected with 4,6-diamidino-2-phenylindole (Bar=30 μM). […] NHEKs were stimulated with 1,25D3 (10^−8M) in combination with the HDAC inhibitor BUT (2 mM) for 24 hours, cells harvested and cell lysates co-incubated with S. aureus DmprF, and bacterial growth monitored over time to determine antimicrobial activity. […]

[3] = test system: acetylated histone H4; experiment: Histone H4 acetylation in keratinocytes (immunofluorescence, Western blot); type: cell-based, human; conditions: HDACi in the presence of 1,25D3
Description: Panel a; Immunofluorescence staining of acetylated histone H4 protein in NHEK treated with HDACi in the presence or absence of 1,25D3. […] Panel b: Western blot of acetylated histone 4 from keratinocytes treated with the HDACi butyrate or TLR agonists. […] Bar=30 μM.
The abundance of acetylated histone was directly measured to confirm the inhibitory effects of butyrate and TSA on HDACs. […] To determine if changes in histone acetylation occur upon stimulation of keratinocytes with TLR ligands NHEK were stimulated with different TLR ligands and histone acetylation was assessed.

[4] = test system: S. aureus DmprF; experiment: Antimicrobial activity of keratinocyte lysates (bacterial growth, OD600); type: cell-based, Staphylococcus aureus
Description: Panel a: NHEKs were stimulated with 1,25D3 (10^−9-10^−7 M) in the presence of the HDAC inhibitor butyrate (BUT; 2 mM) for 24 hours. mRNA abundance was determined by real-time qPCR for cathelicidin and glyceraldehyde-3-phosphate dehydrogenase and normalized to vehicle-treated controls. […] Data shown are means (7SD) of the results from a single stimulation experiment performed in triplicates and are representative of at least three independent experiments (**P<0.01; ***P<0.001; two-way analysis of variance). Panel b: The HDAC inhibitor TSA (200 ng ml^−1) induces cathelicidin in the presence of 1,25D3 (10^−8M). Expression of cathelicidin is dependent on a functional VDR, as pretreatment with the VDR antagonist ZK159222 (10^−7 M) inhibits induction of cathelicidin with BUT (2 mM) in the presence of 1,25D3 (10^−8 M) after 24 hours. Expression of cathelicidin was determined by qPCR as described in Panel a. (*P<0.05; Student's t-test). Panel c: Increased transcript correlates with enhanced cathelicidin protein expression after HDAC inhibitor and 1,25D3 stimulation. NHEKs grown on chamber slides were stimulated with the vehicle, 1,25D3 (10^−8M), BUT (2 mM), or the combination for 24 hours. Cells were stained with a polyclonal anti-LL-37 antibody (followed by an FITC-coupled secondary antibody) and nuclei detected with 4,6-diamidino-2-phenylindole (Bar=30 μM). […] NHEKs were stimulated with 1,25D3 (10^−8M) in combination with the HDAC inhibitor BUT (2 mM) for 24 hours, cells harvested and cell lysates co-incubated with S. aureus DmprF, and bacterial growth monitored over time to determine antimicrobial activity. Media not containing cell lysates or containing cell lysates from unstimulated cells were used as controls.

C=C1/C(=C\C=C2/CCC[C@]3(C)[C@@H]([C@H](C)CCCC(C)(C)O)CC[C@@H]23)C[C@@H](O)C[C@@H]1O [1,25D3, 1,25(OH)2 vitamin D3]
CYP24A1 transcript abundance [1]: strongly upregulated | cathelicidin peptide expression (immunostaining) [2]: increase in cathelicidin peptide expression | acetylation of histone H4 [3]: further increased | suppression of S. aureus growth by protein extracts of treated cells ([4]; cells treated with 1,25D3 (10^−8M) and butyrate (2 mM), 24 hours): maximal ability to suppress the growth | antimicrobial activity of the agents themselves ([4]; without cell lysate): did not show antimicrobial activity
